Earlier results in patent publication US20240034722A1, “PRETARGETING IMAGING AGENTS” (Eli Lilly and Company, priority 2020, published 2024).

What was measured:
ASO-TCO conjugate = conditions: rats given ASO-TCO intrathecally, tracer i.v. 24 and 168 hours later, static PET-CT 75-90 minutes after tracer; cited from earlier work
[1] = wild type mice, dynamic PET, by 10 min post-injection; cited from earlier work

## O=C(Cc1ccc(-c2nncnn2)cc1)NCC[18F] [[^18F]537-Tz, 2-(4-(1,2,4,5-tetrazin-3-yl)phenyl)-N-(2-fluoroethyl)acetamide]
ASO-TCO conjugate
  Radiotracer uptake in brain and spine relative to the control group: Higher radiotracer uptake
[1]
  Brain uptake: 1.7±0.9 % ID
